From patent publication US20180153870A1, “BIPERIDEN FOR TREATING CANCER” (Universitätsklinikum Hamburg-Eppendorf, priority 2015, published 2018)

Tested on: Panc-1
Assay: MTT proliferation assay, Panc-1
Assay type: cell-based, human
Procedure: The cell lines used for the proliferation assays were cultured in different media. The cell lines Pan-1, Panc-2 and BxPC3, which have been derived from the human ductal pancreatic adenocarcinoma (PDAC), were cultured in Dulbecco's modified Eagle medium (DMEM) (Sigma), that was supplemented with 1% penicillin/streptomycin (Life technologies/GIBCO 15140-122) and 10% fetal bovine serum (Life technologies/GIBCO 100500-064). The cell line L3.6pl was cultured in RPMI 1640 medium (Life technologies/GIBCO 72400-21) that was supplemented with 1% penicillin/streptomycin and 10% fetal bovine serum. […]
The proliferation rates of the cell lines were determined after stimulation with (i) biperiden, (ii) mepazine, and (iii) stimulation with both active ingredients. […] Next morning, the blanket values were measured at 490 nm in an ELISA reader (FLUOstar Omega, BMG LABTECH) after the addition of 100 μL medium and 20 μL MTT substrate (CellTiter 96 AQueous One Solution Cell Proliferation Assay, Promega). […] The ex-tinction was measured every 24 hours during a period of 72 hours.
The normal distribution of the results was analyzed by Kolgomorov-Smirnov test and Shapiro-Wilk test. Non-parametric variables were analyzed using the Mann-Whitney-U test. […]

Compound: CN1CCCC(CN2c3ccccc3Sc3ccccc32)C1 (centres unmarked) [mepazine]
- reduction of proliferation (15 μM mepazine, p=0.005): 97.7%
- proliferation (25 μM mepazine, p=0.004): completely stopped
